This is an account of results in patent US20190000889A1, “METHODS FOR TREATING DIABETES” (CITY OF HOPE, priority 2015, published 2019).

Common to all, as to assay type: in vivo
One test has as its system C57BL/6 mice. Nature of the test: Alloxan induction of diabetes, blood glucose levels by day 28. The note with it: one i.v. dose Alloxan 70 mg/kg, day 28, n=222. As to the method:
8-week-old female mice were I.V. injected with β cell toxin Alloxan (Sigma) at 70 mg/kg body weight. Tail vein blood glucose was measured daily or twice a week with Precision Xtra Glucose Meter (Abbott Diabetes Care Inc.) with a maximum reading of 500 mg/dL Tamoxifen (TM, Sigma) was prepared at 20 mg/mL in corn oil (Sigma). For tracing studies in adult mice, a total of 20 mg of TM was given […] in five doses (each 4 mg) over a 2-week period. Mice rendered diabetic (>300 mg/dL) over a period of 28 days were used in subsequent experiments.
This example investigates whether Sox9^+ pancreatic ductal cells could give rise to insulin-producing β cells in adult diabetic mice after GE treatment, using non-autoimmune Sox9^CreERT2R26^mT/mG C57BL/6 mice. First, a β cell neogenesis mouse model in non-autoimmune diabetic C57BL/6 mice was established. 8 week-old adult female C57BL/6 mice were induced to develop diabetes by one intravenous injection of Alloxan (70 mg/kg body weight) as previously described (14, 27). Mice developed variable levels of hyperglycemia, including mild (<300 mg/dL), medium (300-450 mg/dL) and high hyperglycemia (>450 mg/dL). C57BL/6 mice (n=222) were induced to render diabetic by intravenously injecting one dose of Alloxan (70 mg/kg body weight) at day 0. Blood glucose (BG) concentrations in mice were measured twice a week for 4 weeks.

Test [1] relates to Sox9+ pancreatic ductal cells. Briefly: Lineage tracing of Sox9+ ductal cells in Sox9CreERT2 R26mT/mG mice, long-term low-dose GE (islets). The note with it: Sox9CreERT2 R26mT/mG C57BL/6 mice, TM 20 mg in five doses over 2 weeks. As to the method:
8 weeks old female Sox9^CreERT2 R26^mT/mG mice were first injected with Tamoxifen™ to label the Sox9/EGFP^+ cells, then the mice were induced to develop diabetes and treated with PBS or GE and monitored as described in FIG. 2A. At the end of experiments, pancreases were stained for Insulin and EGFP, and merged staining was also shown.
(§1) 8-week-old female mice were I.V. injected with β cell toxin Alloxan (Sigma) at 70 mg/kg body weight. Tail vein blood glucose was measured daily or twice a week with Precision Xtra Glucose Meter (Abbott Diabetes Care Inc.) with a maximum reading of 500 mg/dL Tamoxifen (TM, Sigma) was prepared at 20 mg/mL in corn oil (Sigma). […]
Percentage of EGFP^+Sox9^+ cells was determined by the number of EGFP^+Sox9^+ cells divided by the total number of Sox9^+ cells. Cells were counted in ten random fields of view of a tissue section. To quantify the number of lineage-labeled Insulin^+ cells, all Insulin^+ cells and Ins/EGFP^+Ins^+ cells on a section were counted, and then the percentage of Ins/EGFP^+Ins^+ cells amongst total Insulin^+ cells was determined. To quantify the number of lineage-labeled Insulin^+ cells arising from Sox9^+ cells, all Insulin^+ cells and Sox9/EGFP^+Ins^+ cells on a section were counted, and then the percentage of Sox9/EGFP^+Ins^+ cells among total Insulin^+ cells was determined. […] Average count of each mouse was calculated. […]

Test [2] deals with pre-existing insulin-producing β cells. Nature of the test: Lineage tracing of pre-existing β cells in Ins1CreERT R26mT/mG mice, long-term low-dose GE. Conditions: non-diabetic Ins1CreERT R26mT/mG mice, TM 20 mg in five doses over 2 weeks. As to the method:
8 weeks old female Ins1^CreERTR26^mT/mG mice were first given I.P. injection of Tamoxifen™ every two days over a 2-week period to induce EGFP expression and label the pre-existing β cells. Thereafter, mice were induced to develop diabetes with Alloxan, and mice with medium or high hyperglycemia were treated with GE or PBS control. At the end of the experiments, the pancreases were harvested and stained for insulin and EGFP, and merged staining was also shown. Nuclei were labeled by DAPI. The percentage of EGFP^+Ins^+ cells amongst total Insulin^+ cells was calculated. Normal non-diabetic mice were used as a control for checking EGFP labeling efficiency.
as §1
Percentage of EGFP^+Sox9^+ cells was determined by the number of EGFP^+Sox9^+ cells divided by the total number of Sox9^+ cells. Cells were counted in ten random fields of view of a tissue section. […] To quantify Sox9/EGFP^+Ins^+ cells among ductal tubes, all Sox9/EGFP^+ ductal cells co-expressing insulin in ducts were counted on a section. […] Average count of each mouse was calculated. […]

On to `O=C1NC(=O)C(=O)C(=O)N1` [Alloxan], for which, in the test on C57BL/6 mice, the “Mouse No. with high hyperglycemia (BG ≥ 450 mg/dL)” value is 83, the “Mouse No. with medium hyperglycemia (300 ≤ BG < 450 mg/dL)” value was 101, the “Mouse No. with mild hyperglycemia (BG < 300 mg/dL)” value worked out at 38 and the “Percentage of mice with high hyperglycemia (BG ≥ 450 mg/dL)” value is reported as 38%. In addition, in the test with C57BL/6 mice, the “Percentage of mice with medium hyperglycemia (300 ≤ BG < 450 mg/dL)” value is listed as 45% and the “Percentage of mice with mild hyperglycemia (BG < 300 mg/dL)” value is reported as 17%.

Turning to `CC/C(=C(\c1ccccc1)c1ccc(OCCN(C)C)cc1)c1ccccc1` [TM, Tamoxifen], the “Pancreatic Sox9-expression ductal epithelial cells labeled with EGFP” value in test [1] is recorded as “over 90%”. Also, in test [2], the “Pre-existing β cells in the islets labeled with EGFP” value is “more than 90%”.
